Measurements reported in patent US12138256B2, “Treatment of cardiopulmonary disorders” (Bayer Aktiengesellschaft, priority 2021, dated 2024).
Values joined by “and” are separate entries in the source; they are usually repeats but may differ in a detail not shown here. Identical values can stand only once.

Legend:
[1] = tested on: unilateral broncho-occlusion in anesthetized minipigs; assay: Unilateral broncho-occlusion minipig model: arterial oxygenation as proxy of VQ-mismatch, intrapulmonary selectivity (C-2.3); assay type: in vivo; conditions: for % decrease delta PAP (maximal hypoxic PAP) / % increase AUCSaO2 (unwanted desaturation effect): mean, n = 4
Procedure: These effects were more pronounced 90 min after inhalation of comparative example 11 (second intervention cycles (inhal)). […] Thus, the mean % changes in maximal hypoxic PAP and associated % changes in area under the oxygen saturation curve [AUCSaO2] were compared (see FIG. 65) within the respective group. As reference cycles in each group, we used cycle 3 for the inhaled applications as well as cycle 4 for the i.v. applications.

[2] = tested on: thromboxane analog U46619 induced PAH in minipigs with ODQ or L-NAME pretreatment; assay: PAH minipig model under oxidative stress / low NO (pretreatment by ODQ or L-NAME); assay type: in vivo, Göttingen minipig; parameters: PAP / BP: unit not given beside the values; conditions: for BP / PAP: 30 μg/kg nominal dose inhaled
Procedure: To simulate conditions of oxidative stress or low NO concentrations as assumed to be present in different cardiovascular disorders, comparative example 11 was evaluated with and without pretreatment by ODQ (inhibitor of sGC) or L-NAME (NOS inhibitor). […] In contrast, the effects of Ventavis® under conditions of oxidative stress or low NO concentrations were not enhanced. In addition, also under these pathophysiological conditions the duration of action of comparative example 11 was much longer compared to Ventavis®.

## O=C(O)c1ccc(CCN(CCc2ccccc2OCc2ccc(-c3ccc(C(F)(F)F)cc3)cc2Cl)[C@H]2CCCc3nc(C(=O)O)ccc32)cc1 [comparative example 11, (5S)-5-{[2-(4-carboxyphenyl)ethyl][2-(2-{[3-chloro-4′-(trifluoromethyl)[biphenyl]-4-yl]methoxy}phenyl)ethyl]amino}-5,6,7,8-tetrahydroquinoline-2-carboxylic acid]
[1]; 100 μg/kg nominal dose inhaled
  time of maximal effects after inhalation: 90 min
[1]; Inhalation I, Cycle 5
  % decrease delta PAP (maximal hypoxic PAP): 1.8%
  % increase AUCSaO2 (unwanted desaturation effect): −18.6%
[1]; Inhalation II, Cycle 6
  % decrease delta PAP (maximal hypoxic PAP): −19.6%
  % increase AUCSaO2 (unwanted desaturation effect): −39.4%
[1]; after inhaled (cycle 6) as well as i.v. application (cycles 7 and 8)
  hypoxia-induced increases in mean pulmonary artery pressure (mPAP): effectively reduced
[1]; i.v. application, 30 μg/kg and 100 μg/kg
  BP: expected drop in BP
[1]; inhaled application, 100 μg/kg nominal dose
  desaturation area (AUCSaO2): did not increase desaturation area
[1]; iv Bolus 30 μg
  % decrease delta PAP (maximal hypoxic PAP): −23.8%
  % increase AUCSaO2 (unwanted desaturation effect): 48.1%
[1]; iv Bolus 100 μg
  % decrease delta PAP (maximal hypoxic PAP): −14.3%
  % increase AUCSaO2 (unwanted desaturation effect): 282.8%
[1]; systemic (i.v.) application, 30 and 100 μg/kg
  desaturation area (AUCSaO2): dose dependent increase in desaturation area
[2]; L-NAME pretreatment, Time 170
  BP: 103.0 and 135.0 and 123.0
  PAP: 39.5 and 36.2 and 34.6
[2]; L-NAME pretreatment, Time 180
  BP: 104.0 and 139.0 and 127.0
  PAP: 38.9 and 29.1 and 30.8
[2]; L-NAME pretreatment, Time 190
  BP: 104.0 and 137.0 and 127.0
  PAP: 38.0 and 25.9 and 28.4
[2]; L-NAME pretreatment, Time 200
  BP: 104.0 and 135.0 and 129.0
  PAP: 36.8 and 24.6 and 28.1
[2]; L-NAME pretreatment, Time 210
  BP: 105.0 and 133.0 and 127.0
  PAP: 36.5 and 23.9 and 26.6
[2]; L-NAME pretreatment, Time 220
  BP: 107.0 and 131.0 and 127.0
  PAP: 36.6 and 23.8 and 25.5
[2]; L-NAME pretreatment, Time 230
  BP: 108.0 and 127.0 and 129.0
  PAP: 35.5 and 23.6 and 25.6
[2]; L-NAME pretreatment, Time 240
  BP: 106.0 and 128.0
  PAP: 35.0 and 24.0 and 25.0
[2]; L-NAME pretreatment, Time 250
  BP: 106.0 and 126.0 and 130.0
  PAP: 34.5 and 23.5 and 24.8
[2]; L-NAME pretreatment, Time 260
  BP: 107.0 and 126.0 and 130.0
  PAP: 34.6 and 24.2 and 24.7
[2]; L-NAME pretreatment, Time 270
  BP: 104.0 and 126.0 and 129.0
  PAP: 34.1 and 24.0 and 24.3
[2]; L-NAME pretreatment, Time 280
  BP: 103.0 and 125.0 and 129.0
  PAP: 33.4 and 23.7 and 24.4
[2]; L-NAME pretreatment, Time 290
  BP: 104.0 and 126.0 and 128.0
  PAP: 34.4 and 23.4 and 24.2
[2]; L-NAME pretreatment, Time 300
  BP: 105.0 and 125.0 and 127.0
  PAP: 34.2 and 24.1 and 24.0
[2]; L-NAME pretreatment, Time 310
  BP: 103.0 and 125.0 and 128.0
  PAP: 33.3 and 23.6 and 24.3
[2]; L-NAME pretreatment, Time 320
  BP: 104.0 and 125.0 and 126.0
  PAP: 33.8 and 23.1 and 24.0
[2]; L-NAME pretreatment, Time 330
  BP: 105.0 and 126.0 and 125.0
  PAP: 34.1
[2]; L-NAME pretreatment, Time 340
  BP: 104.0 and 126.0 and 125.0
[2]; without pretreatment, Time 170
  BP: 90.0 and 108.0
  PAP: 39.7 and 38.0 and 42.6
[2]; without pretreatment, Time 180
  BP: 90.0 and 108.0
  PAP: 38.5 and 37.1 and 41.5
[2]; without pretreatment, Time 190
  BP: 90.0 and 107.0 and 108.0
  PAP: 37.0 and 35.9 and 40.3
[2]; without pretreatment, Time 200
  BP: 89.0 and 109.0
  PAP: 36.5 and 35.2 and 39.0
[2]; without pretreatment, Time 210
  BP: 89.0 and 108.0 and 109.0
  PAP: 35.6 and 34.2 and 38.5
[2]; without pretreatment, Time 220
  BP: 88.0 and 110.0 and 108.0
  PAP: 34.7 and 33.9 and 36.8
[2]; without pretreatment, Time 230
  BP: 87.0 and 108.0
  PAP: 34.8 and 33.4 and 37.1
[2]; without pretreatment, Time 240
  BP: 87.0 and 109.0 and 108.0
  PAP: 34.5 and 33.6 and 37.0
[2]; without pretreatment, Time 250
  BP: 86.0 and 110.0 and 109.0
  PAP: 34.3 and 33.5 and 36.7
[2]; without pretreatment, Time 260
  BP: 87.0 and 109.0 and 110.0
  PAP: 34.1 and 33.3 and 36.5
[2]; without pretreatment, Time 270
  BP: 86.0 and 108.0 and 110.0
  PAP: 34.0 and 33.6 and 36.2
[2]; without pretreatment, Time 280
  BP: 88.0 and 109.0
  PAP: 34.5 and 33.5 and 35.6
[2]; without pretreatment, Time 290
  BP: 88.0 and 108.0 and 110.0
  PAP: 34.7 and 33.6 and 35.5
[2]; without pretreatment, Time 300
  BP: 86.0 and 107.0 and 111.0
  PAP: 34.1 and 33.2 and 35.4
[2]; without pretreatment, Time 310
  BP: 85.0 and 107.0 and 109.0
  PAP: 34.0 and 33.6 and 35.1
[2]; without pretreatment, Time 320
  BP: 85.0 and 108.0 and 109.0
  PAP: 34.5 and 34.0 and 35.8
[2]; without pretreatment, Time 330
  BP: 85.0 and 108.0 and 109.0
  PAP: 34.8 and 34.0 and 35.9
[2]; without pretreatment, Time 340
  BP: 85.0
[2]; inhaled, comparative example 11 30 μg/kg ND, Ventavis 10 μg/kg nominal dose
  effect on PAP after pretreatment of ODQ or L-NAME: enhanced decrease of PAP without effects on systemic BP
